According to patent US12673945B2, “3-((8-((1H-pyrazol-4-yl)amino)imidazo[1,2-a]pyridin-3-yl)ethinyl)-n-phenylbenzamide derivative, method for preparing same, and pharmaceutical composition containing same as active ingredient for prevention or treatment of cancer” (DAEGU-GYEONGBUK MEDICAL INNOVATION FOUNDATION, priority 2020, dated 2026):

Experiments:
Assay in all cases: scanMAX Kinase panel (DiscoverX)
Format in all cases: binding
[1] = molecular target: T1, ABL1(F317L)-phosphorylated (Homo sapiens, UniProt P00519, F317L); conditions: read-out: % Cont @ 1 uM
T1 construct: purchased DiscoverX
Protocol: (§1) Among the example compounds of the present invention, the enzyme (kinase) selectivity of the selected compounds of Examples 1 and 4 was measured by requesting DiscoverX. At this time, the experiment was performed using a panel for scanMAX™ Kinase. The concentration of the drug treated to the enzyme was 1 μM in DMSO, and the percentage control (% control) was determined by the method shown in Equation 1 below. (Example Compound−Positive Control)/(Negative Control−Positive control)×100 [Equation 1]

[2] = molecular target: T2, FLT3(D835H) (Homo sapiens, UniProt P36888, D835H); conditions: read-out: % Cont @ 1 uM
T2 construct: purchased DiscoverX scanMAX Kinase panel
Protocol: as §1

[3] = molecular target: T3, ABL1-nonphosphorylated (Homo sapiens, UniProt P00519); conditions: read-out: % Cont @ 1 uM
T3 construct: purchased DiscoverX scanMAX Kinase panel
Protocol: as §1

[4] = molecular target: T4, EGFR(L858R) (Homo sapiens, UniProt P00533, L858R)
T4 construct: purchased DiscoverX scanMAX Kinase panel
Protocol: as §1

[5] = molecular target: T5, MAP3K2 (Homo sapiens, UniProt Q9Y2U5); conditions: read-out: % Cont @ 1 uM
T5 construct: purchased DiscoverX scanMAX Kinase panel
Protocol: as §1

[6] = molecular target: T6, FGFR2 (Homo sapiens, UniProt P21802); conditions: read-out: % Cont @ 1 uM
T6 construct: purchased DiscoverX scanMAX Kinase panel
Protocol: as §1

[7] = molecular target: T7, FLT3 (Homo sapiens, UniProt P36888); conditions: read-out: % Cont @ 1 uM
T7 construct: purchased DiscoverX scanMAX Kinase panel
Protocol: as §1

[8] = molecular target: T8, ABL1(H396P)-phosphorylated (Homo sapiens, UniProt P00519, H396P); conditions: read-out: % Cont @ 1 uM
T8 construct: purchased DiscoverX
Protocol: as §1

[9] = molecular target: T9, CDC2L2 (Homo sapiens, UniProt Q9UQ88); conditions: read-out: % Cont @ 1 uM
T9 construct: purchased DiscoverX scanMAX Kinase panel
Protocol: as §1

[10] = molecular target: T10, MAP4K3 (Homo sapiens, UniProt Q8IVH8)
T10 construct: purchased DiscoverX scanMAX Kinase panel
Protocol: as §1

[11] = molecular target: T11, PAK3 (Homo sapiens, UniProt O75914); conditions: read-out: % Cont @ 1 uM
T11 construct: purchased DiscoverX scanMAX Kinase panel
Protocol: as §1

[12] = molecular target: T12, BRAF(V600E) (Homo sapiens, UniProt P15056, V600E); conditions: read-out: % Cont @ 1 uM
T12 construct: purchased DiscoverX scanMAX Kinase panel
Protocol: as §1

[13] = molecular target: T13, ABL1(M351T)-phosphorylated (Homo sapiens, UniProt P00519, M351T); conditions: read-out: % Cont @ 1 uM
T13 construct: purchased DiscoverX
Protocol: as §1

[14] = molecular target: T14, ABL1(F317L)-nonphosphorylated (Homo sapiens, UniProt P00519, F317L); conditions: read-out: % Cont @ 1 uM
T14 construct: purchased DiscoverX
Protocol: as §1

[15] = molecular target: T15, RIPK1 (Homo sapiens, UniProt Q13546); conditions: read-out: % Cont @ 1 uM
T15 construct: purchased DiscoverX scanMAX Kinase panel
Protocol: as §1

[16] = molecular target: T16, MAP4K2 (Homo sapiens, UniProt Q12851); conditions: read-out: % Cont @ 1 uM
T16 construct: purchased DiscoverX scanMAX Kinase panel
Protocol: as §1

[17] = molecular target: T17, CDK7 (Homo sapiens, UniProt P50613); conditions: read-out: % Cont @ 1 uM
T17 construct: purchased DiscoverX scanMAX Kinase panel
Protocol: as §1

[18] = molecular target: T18, JNK2 (Homo sapiens, UniProt P45984)
T18 construct: purchased DiscoverX scanMAX Kinase panel
Protocol: as §1

[19] = molecular target: T19, LIMK1 (Homo sapiens, UniProt P53667); conditions: read-out: % Cont @ 1 uM
T19 construct: purchased DiscoverX scanMAX Kinase panel
Protocol: as §1

[20] = molecular target: T20, EPHA8 (Homo sapiens, UniProt P29322); conditions: read-out: % Cont @ 1 uM
T20 construct: purchased DiscoverX scanMAX Kinase panel
Protocol: as §1

[21] = molecular target: T21, CSF1R (Homo sapiens, UniProt P07333); conditions: read-out: % Cont @ 1 uM
T21 construct: purchased DiscoverX scanMAX Kinase panel
Protocol: as §1

[22] = molecular target: T22, EGFR (Homo sapiens, UniProt P00533)
T22 construct: purchased DiscoverX scanMAX Kinase panel
Protocol: as §1

[23] = molecular target: T23, ABL1(E255K)-phosphorylated (Homo sapiens, UniProt P00519, E255K); conditions: read-out: % Cont @ 1 uM
T23 construct: purchased DiscoverX
Protocol: as §1

[24] = molecular target: T24, EPHA5 (Homo sapiens, UniProt P54756)
T24 construct: purchased DiscoverX scanMAX Kinase panel
Protocol: as §1

[25] = molecular target: T25, KIT(A829P) (Homo sapiens, UniProt P10721, A829P); conditions: read-out: % Cont @ 1 uM
T25 construct: purchased DiscoverX scanMAX Kinase panel
Protocol: as §1

[26] = molecular target: T26, RIOK3 (Homo sapiens, UniProt O14730); conditions: read-out: % Cont @ 1 uM
T26 construct: purchased DiscoverX scanMAX Kinase panel
Protocol: as §1

[27] = molecular target: T27, FGFR3(G697C) (Homo sapiens, UniProt P22607, G697C); conditions: read-out: % Cont @ 1 uM
T27 construct: purchased DiscoverX scanMAX Kinase panel
Protocol: as §1

[28] = molecular target: T28, ABL1(T315I)-phosphorylated (Homo sapiens, UniProt P00519, T315I); conditions: read-out: % Cont @ 1 uM
T28 construct: purchased DiscoverX
Protocol: as §1

[29] = molecular target: T29, GCN2(Kin.Dom.2, S808G) (Homo sapiens, UniProt Q9P2K8, S808G); conditions: read-out: % Cont @ 1 uM
T29 construct: GCN2(Kin.Dom.2,S808G); purchased DiscoverX scanMAX Kinase panel
Protocol: as §1

[30] = molecular target: T30, TEC (Homo sapiens, UniProt P42680); conditions: read-out: % Cont @ 1 uM
T30 construct: purchased DiscoverX scanMAX Kinase panel
Protocol: as §1

[31] = molecular target: T31, PFTK1 (Homo sapiens, UniProt O94921)
T31 construct: purchased DiscoverX scanMAX Kinase panel
Protocol: as §1

[32] = molecular target: T32, IRAK1 (Homo sapiens, UniProt P51617); conditions: read-out: % Cont @ 1 uM
T32 construct: purchased DiscoverX scanMAX Kinase panel
Protocol: as §1

[33] = molecular target: T33, MINK (Homo sapiens, UniProt Q8N4C8); conditions: read-out: % Cont @ 1 uM
T33 construct: purchased DiscoverX scanMAX Kinase panel
Protocol: as §1

[34] = molecular target: T34, MKNK2 (Homo sapiens, UniProt Q9HBH9); conditions: read-out: % Cont @ 1 uM
T34 construct: purchased DiscoverX scanMAX Kinase panel
Protocol: as §1

[35] = molecular target: T35, ERBB2 (Homo sapiens, UniProt P04626); conditions: read-out: % Cont @ 1 uM
T35 construct: purchased DiscoverX scanMAX Kinase panel
Protocol: as §1

[36] = molecular target: T36, BLK (Homo sapiens, UniProt P51451); conditions: read-out: % Cont @ 1 uM
T36 construct: purchased DiscoverX scanMAX Kinase panel
Protocol: as §1

[37] = molecular target: T37, NLK (Homo sapiens, UniProt Q9UBE8); conditions: read-out: % Cont @ 1 uM
T37 construct: purchased DiscoverX scanMAX Kinase panel
Protocol: as §1

[38] = molecular target: T38, RET(V804L) (Homo sapiens, UniProt P07949, V804L); conditions: read-out: % Cont @ 1 uM
T38 construct: purchased DiscoverX scanMAX Kinase panel
Protocol: as §1

T11 sequence (O75914 whole entry): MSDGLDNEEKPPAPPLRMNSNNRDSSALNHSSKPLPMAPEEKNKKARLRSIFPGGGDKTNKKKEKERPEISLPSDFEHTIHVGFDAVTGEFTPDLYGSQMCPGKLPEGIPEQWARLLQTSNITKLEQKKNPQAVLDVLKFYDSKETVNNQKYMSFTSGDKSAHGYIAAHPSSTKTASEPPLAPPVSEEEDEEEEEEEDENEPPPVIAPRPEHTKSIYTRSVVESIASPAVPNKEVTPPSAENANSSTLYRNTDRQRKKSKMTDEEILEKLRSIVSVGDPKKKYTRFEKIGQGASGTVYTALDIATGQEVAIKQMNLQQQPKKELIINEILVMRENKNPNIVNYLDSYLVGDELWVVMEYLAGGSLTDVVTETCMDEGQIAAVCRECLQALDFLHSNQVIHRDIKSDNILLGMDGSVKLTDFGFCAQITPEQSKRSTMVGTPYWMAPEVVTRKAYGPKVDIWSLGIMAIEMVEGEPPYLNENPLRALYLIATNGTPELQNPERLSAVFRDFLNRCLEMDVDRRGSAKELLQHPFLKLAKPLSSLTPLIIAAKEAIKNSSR
T21 sequence (P07333 20-972): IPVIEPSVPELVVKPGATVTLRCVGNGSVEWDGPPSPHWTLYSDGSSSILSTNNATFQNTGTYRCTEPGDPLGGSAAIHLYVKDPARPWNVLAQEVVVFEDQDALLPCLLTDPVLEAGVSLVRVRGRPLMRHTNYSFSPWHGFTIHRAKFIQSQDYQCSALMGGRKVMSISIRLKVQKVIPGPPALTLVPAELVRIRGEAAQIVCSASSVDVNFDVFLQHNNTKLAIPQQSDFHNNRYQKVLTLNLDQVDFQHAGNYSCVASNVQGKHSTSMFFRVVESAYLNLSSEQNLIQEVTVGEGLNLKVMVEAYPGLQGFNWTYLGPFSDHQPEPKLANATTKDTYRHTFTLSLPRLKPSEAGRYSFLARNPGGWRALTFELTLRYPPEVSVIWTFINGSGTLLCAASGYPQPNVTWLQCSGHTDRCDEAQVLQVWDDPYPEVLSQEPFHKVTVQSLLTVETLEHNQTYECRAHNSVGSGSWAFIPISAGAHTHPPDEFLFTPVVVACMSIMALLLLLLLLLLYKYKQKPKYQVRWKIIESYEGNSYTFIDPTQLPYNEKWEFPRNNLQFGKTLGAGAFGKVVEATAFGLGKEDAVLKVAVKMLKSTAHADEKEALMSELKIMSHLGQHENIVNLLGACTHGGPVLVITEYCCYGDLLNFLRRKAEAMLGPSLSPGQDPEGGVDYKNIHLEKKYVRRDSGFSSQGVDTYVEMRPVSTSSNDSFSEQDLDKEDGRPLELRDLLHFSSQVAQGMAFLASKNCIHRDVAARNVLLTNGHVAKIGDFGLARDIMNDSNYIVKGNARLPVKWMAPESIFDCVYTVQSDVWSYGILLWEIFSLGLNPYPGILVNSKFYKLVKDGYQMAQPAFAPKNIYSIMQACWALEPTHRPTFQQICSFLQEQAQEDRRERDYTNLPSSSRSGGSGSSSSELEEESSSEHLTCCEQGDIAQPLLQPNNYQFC
T19 sequence (P53667 whole entry): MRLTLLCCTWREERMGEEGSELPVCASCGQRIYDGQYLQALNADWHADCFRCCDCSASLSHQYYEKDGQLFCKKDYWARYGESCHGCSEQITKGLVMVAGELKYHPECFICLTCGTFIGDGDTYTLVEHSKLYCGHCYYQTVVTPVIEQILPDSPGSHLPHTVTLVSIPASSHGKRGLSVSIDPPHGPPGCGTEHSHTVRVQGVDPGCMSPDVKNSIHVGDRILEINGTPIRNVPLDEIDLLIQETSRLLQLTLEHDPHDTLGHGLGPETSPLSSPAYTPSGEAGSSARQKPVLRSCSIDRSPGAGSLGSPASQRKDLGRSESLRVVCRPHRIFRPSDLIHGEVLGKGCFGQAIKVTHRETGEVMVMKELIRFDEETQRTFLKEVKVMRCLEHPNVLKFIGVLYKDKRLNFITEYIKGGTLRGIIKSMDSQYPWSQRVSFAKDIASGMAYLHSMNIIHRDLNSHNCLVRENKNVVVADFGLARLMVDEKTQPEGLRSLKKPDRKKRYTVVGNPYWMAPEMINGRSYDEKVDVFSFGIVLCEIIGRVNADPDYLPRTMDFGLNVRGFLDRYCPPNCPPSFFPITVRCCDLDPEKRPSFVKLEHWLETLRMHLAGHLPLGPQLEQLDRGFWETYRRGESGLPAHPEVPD
T33 sequence (Q8N4C8 whole entry): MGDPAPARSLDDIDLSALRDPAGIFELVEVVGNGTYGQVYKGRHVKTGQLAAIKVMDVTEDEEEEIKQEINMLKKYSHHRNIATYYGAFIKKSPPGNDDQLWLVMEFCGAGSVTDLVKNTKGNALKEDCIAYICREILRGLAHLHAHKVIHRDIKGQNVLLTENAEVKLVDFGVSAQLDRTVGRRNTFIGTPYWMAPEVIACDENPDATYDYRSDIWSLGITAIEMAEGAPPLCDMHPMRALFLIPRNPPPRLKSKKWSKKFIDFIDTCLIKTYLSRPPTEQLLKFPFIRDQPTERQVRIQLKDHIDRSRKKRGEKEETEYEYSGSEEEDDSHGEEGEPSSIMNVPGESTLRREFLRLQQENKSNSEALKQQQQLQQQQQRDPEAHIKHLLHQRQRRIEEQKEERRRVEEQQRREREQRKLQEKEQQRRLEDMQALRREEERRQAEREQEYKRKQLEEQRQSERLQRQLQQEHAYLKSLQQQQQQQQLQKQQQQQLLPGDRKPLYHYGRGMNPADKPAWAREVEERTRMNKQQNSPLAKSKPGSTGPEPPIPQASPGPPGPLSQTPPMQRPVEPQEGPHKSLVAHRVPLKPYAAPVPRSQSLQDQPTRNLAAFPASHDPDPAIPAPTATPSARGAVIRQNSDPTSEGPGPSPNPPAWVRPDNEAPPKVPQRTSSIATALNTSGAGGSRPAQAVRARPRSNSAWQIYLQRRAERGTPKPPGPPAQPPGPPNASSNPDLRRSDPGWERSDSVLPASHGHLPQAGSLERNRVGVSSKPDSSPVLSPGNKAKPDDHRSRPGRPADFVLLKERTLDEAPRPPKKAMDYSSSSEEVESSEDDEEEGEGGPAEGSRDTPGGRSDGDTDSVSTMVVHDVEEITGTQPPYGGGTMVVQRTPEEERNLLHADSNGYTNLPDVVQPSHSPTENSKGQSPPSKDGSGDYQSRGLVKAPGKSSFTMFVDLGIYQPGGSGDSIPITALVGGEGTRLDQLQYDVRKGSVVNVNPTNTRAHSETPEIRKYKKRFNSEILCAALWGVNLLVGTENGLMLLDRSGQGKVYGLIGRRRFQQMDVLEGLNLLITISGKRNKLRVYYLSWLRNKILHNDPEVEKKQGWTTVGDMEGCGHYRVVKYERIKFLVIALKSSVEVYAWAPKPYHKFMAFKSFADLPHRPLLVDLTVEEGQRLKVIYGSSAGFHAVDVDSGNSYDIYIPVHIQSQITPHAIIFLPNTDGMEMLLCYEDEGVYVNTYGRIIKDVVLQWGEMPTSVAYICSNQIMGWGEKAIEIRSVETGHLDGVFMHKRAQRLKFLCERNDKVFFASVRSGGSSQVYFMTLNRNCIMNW
T20 sequence (P29322 28-1005): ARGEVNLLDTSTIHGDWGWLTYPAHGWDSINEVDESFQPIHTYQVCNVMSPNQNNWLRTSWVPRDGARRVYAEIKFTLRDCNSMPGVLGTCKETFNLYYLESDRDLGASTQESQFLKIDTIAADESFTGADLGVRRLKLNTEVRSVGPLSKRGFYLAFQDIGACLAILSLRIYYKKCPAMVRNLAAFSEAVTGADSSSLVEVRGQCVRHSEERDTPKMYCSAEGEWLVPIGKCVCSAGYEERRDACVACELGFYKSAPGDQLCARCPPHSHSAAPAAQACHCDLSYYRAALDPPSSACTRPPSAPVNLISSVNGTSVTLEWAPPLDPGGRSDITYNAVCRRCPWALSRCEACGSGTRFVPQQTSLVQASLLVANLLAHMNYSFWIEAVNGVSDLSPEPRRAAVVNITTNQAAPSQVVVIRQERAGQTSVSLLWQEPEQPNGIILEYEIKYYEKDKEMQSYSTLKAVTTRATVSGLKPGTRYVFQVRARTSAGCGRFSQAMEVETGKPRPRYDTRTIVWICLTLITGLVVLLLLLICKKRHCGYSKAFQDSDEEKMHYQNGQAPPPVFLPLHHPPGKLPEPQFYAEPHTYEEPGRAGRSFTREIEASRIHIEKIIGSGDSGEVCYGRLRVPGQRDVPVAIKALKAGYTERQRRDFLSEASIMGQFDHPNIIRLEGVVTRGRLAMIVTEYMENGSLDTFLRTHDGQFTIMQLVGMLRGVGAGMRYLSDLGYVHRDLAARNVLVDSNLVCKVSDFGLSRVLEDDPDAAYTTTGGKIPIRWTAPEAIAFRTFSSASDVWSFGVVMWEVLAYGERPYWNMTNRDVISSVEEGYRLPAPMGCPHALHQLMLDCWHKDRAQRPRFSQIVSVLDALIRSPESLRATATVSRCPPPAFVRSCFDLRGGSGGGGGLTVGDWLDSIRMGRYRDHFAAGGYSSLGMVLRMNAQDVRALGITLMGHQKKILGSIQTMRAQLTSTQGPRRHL
T5 sequence (Q9Y2U5 whole entry): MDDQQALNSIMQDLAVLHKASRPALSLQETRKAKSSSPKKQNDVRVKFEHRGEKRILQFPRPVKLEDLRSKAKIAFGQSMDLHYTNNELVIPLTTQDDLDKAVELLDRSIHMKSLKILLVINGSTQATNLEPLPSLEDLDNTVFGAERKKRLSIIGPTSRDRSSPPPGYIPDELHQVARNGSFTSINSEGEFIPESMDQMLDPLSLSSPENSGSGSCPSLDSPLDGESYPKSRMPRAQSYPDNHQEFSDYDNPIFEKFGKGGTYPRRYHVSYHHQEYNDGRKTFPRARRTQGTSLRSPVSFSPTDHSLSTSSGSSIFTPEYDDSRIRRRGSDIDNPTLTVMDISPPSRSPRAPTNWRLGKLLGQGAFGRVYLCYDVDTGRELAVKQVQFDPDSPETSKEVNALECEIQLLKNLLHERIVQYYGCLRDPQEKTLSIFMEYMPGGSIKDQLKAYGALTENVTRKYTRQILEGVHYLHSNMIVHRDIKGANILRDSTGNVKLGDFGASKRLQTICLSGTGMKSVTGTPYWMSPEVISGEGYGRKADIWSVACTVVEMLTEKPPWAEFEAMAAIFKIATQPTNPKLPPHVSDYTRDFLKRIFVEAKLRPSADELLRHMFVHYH

| Structure (SMILES) | remaining binding at 1 µM [1] [%] | remaining binding at 1 µM [2] [%] | remaining binding at 1 µM [3] [%] | % Cont @ 1 uM [4] [%] | remaining binding at 1 µM [5] [%] | remaining binding at 1 µM [6] [%] | remaining binding at 1 µM [7] [%] | remaining binding at 1 µM [8] [%] | remaining binding at 1 µM [9] [%] | % Cont @ 1 uM [10] [%] | remaining binding at 1 µM [11] [%] | remaining binding at 1 µM [12] [%] | remaining binding at 1 µM [13] [%] | remaining binding at 1 µM [14] [%] | remaining binding at 1 µM [15] [%] | remaining binding at 1 µM [16] [%] | remaining binding at 1 µM [17] [%] | % Cont @ 1 uM [18] [%] | percent of control binding at 1 µM [19] [%] | remaining binding at 1 µM [20] [%] | other results |
| --- | --- | --- | --- | --- | --- | --- | --- | --- | --- | --- | --- | --- | --- | --- | --- | --- | --- | --- | --- | --- | --- |
| Cc1cn(-c2cc(NC(=O)c3cc(C#Cc4cnc5c(Nc6cnn(C)c6)cccn45)c(C)cc3F)cc(C(C)(C)C#N)c2)cn1 [Example 1, N-(3-(2-cyanopropane-2-yl)-5-(4-methyl-1H-imidazol-1-yl)phenyl)-2-fluoro-4-methyl-5-((8-((1-methyl-1H-pyrazol-4-yl)amino)imidazo[1,2-a]pyridin-3-yl)ethynyl)benzamide] | 0 | 0.45 | 1.9 | 5.5 | 34 | 30 | 2 | 0.55 | 24 | 4 | 7.1 | 15 | 0.25 | 2.7 | 1.6 | 2.5 | 4.7 | 12 | 33 | 0.1 | remaining binding at 1 µM [21]: 0.2%; % Cont @ 1 uM [22]: 29%; remaining binding at 1 µM [23]: 0.9%; % Cont @ 1 uM [24]: 8.9%; percent of control binding at 1 µM [25]: 1.1%; remaining binding at 1 µM [26]: 31%; remaining binding at 1 µM [27]: 7.5%; remaining binding at 1 µM [28]: 2.3%; remaining binding at 1 µM [29]: 17%; remaining binding at 1 µM [30]: 1.3%; % Cont @ 1 uM [31]: 8.3%; percent of control binding at 1 µM [32]: 27%; percent of control binding at 1 µM [33]: 2.4%; remaining binding at 1 µM [34]: 0.7%; remaining binding at 1 µM [35]: 34%; remaining binding at 1 µM [36]: 0.05%; remaining binding at 1 µM [37]: 0%; remaining binding at 1 µM [38]: 0.6% |
| Cc1cn(-c2cc(NC(=O)c3cc(C#Cc4cnc5c(Nc6cnn(C)c6)cccn45)c(C)cc3F)cc(C(F)(F)F)c2)cn1 [Example 4, 2-fluoro-4-methyl-N-(3-(4-methyl-1H-imidazol-1-yl)-5-(trifluoromethyl)phenyl)-5-((8-((1-methyl-1H-pyrazol-4-yl)amino)imidazo[1,2-a]pyridin-3-yl)ethynyl)benzamide] | 1.2 | 4.5 | 5.6 | 57 | 87 | 61 | 1.9 | 9.6 | 83 | 70 | 10 | 48 | 10 | 10 | 44 | 70 | 71 | 81 | 75 | 1.6 | remaining binding at 1 µM [21]: 2.5%; % Cont @ 1 uM [22]: 79%; remaining binding at 1 µM [23]: 12%; % Cont @ 1 uM [24]: 26%; percent of control binding at 1 µM [25]: 2%; remaining binding at 1 µM [26]: 40%; remaining binding at 1 µM [27]: 90%; remaining binding at 1 µM [28]: 16%; remaining binding at 1 µM [29]: 64%; remaining binding at 1 µM [30]: 46%; % Cont @ 1 uM [31]: 94%; percent of control binding at 1 µM [32]: 100%; percent of control binding at 1 µM [33]: 88%; remaining binding at 1 µM [34]: 96%; remaining binding at 1 µM [35]: 65%; remaining binding at 1 µM [36]: 0.4%; remaining binding at 1 µM [37]: 14%; remaining binding at 1 µM [38]: 6% |
